Measured values taken from patent US20090209426A1, “HERBICIDAL MIXTURE” (priority 2006, published 2009).

Test system: Digitaria nuda
Experiment: Test A: greenhouse postemergence herbicidal effect on Digitaria nuda, visual rating 21 DAT
Format: in vivo
Protocol: Square plastic pots (10 cm on each side) were filled to the rim with a Redi-earth® (Sun Gro Horticulture, Bellevue, Wash.) planting medium containing 55-65% of Canadian sphagnum peat moss, horticultural grade vermiculite, dolomitic limestone and a wetting agent. The soil was tamped firm to a uniform level of 2.5 cm below the rim of the pot. A measured amount of Digitaria nuda seed was scattered on the soil surface of each pot. Seeded pots were covered with approximately 50 mL of the same planting media, tamped, and set out on a greenhouse bench.
The pots were watered thoroughly at once and then as needed with a dilute balanced N—P—K fertilizer solution to provide 218 ppm nitrogen. Artificial lighting was used to supplement natural light to produce a 14-hour photoperiod. Greenhouse temperatures were targeted for 27° C. during the daytime and 21° C. at night. Once the plants reached their appropriate growth stage, the plants were sorted into test units prior to the herbicide application. Digitaria nuda was 5 to 7 cm in height and at the 3-leaf stage at the time of application.
Test chemicals included diuron in the form of KARMEX® Herbicide, which is a 80 weight (wt.) % wettable granule formulation, a mixture of diuron with hexazinone in the form of DUPONT™ K4™ Herbicide, which a granule formulation containing 468 g of diuron and 132 g of hexazinone per kg of formulation, another mixture of diuron with hexazinone in the form of ADVANCE™ Herbicide, which is a wettable granule formulation containing 533 g of diuron and 67 g of hexazinone per kg of formulation, and mesotrione in the form of the commercial product CALLISTO® Herbicide, which is a 40 weight-volume (wt.-vol.) % suspension concentrate containing 400 g of mesotrione per liter of formulation. The application rates for this test were selected based on the recommended use rate of each compound. Application rates of diuron were 1800 g a.i./ha alone from KARMEX® Herbicide, 936 g a.i./ha from DUPONT™ K4™ Herbicide in combination with 264 g a.i./ha of hexazinone, and 1599 g a.i./ha from ADVANCE™ Herbicide in combination with 201 g a.i./ha of hexazinone. […] Furthermore diuron was tested alone and together with hexazinone in combination with mesotrione at these application rates.
The herbicides were diluted in a measured amount of carrier solution to make stock solutions. The carrier solution was water containing 0.25% v/v of non-ionic adjuvant X-77. The stock solutions were all mixed for 10 minutes before aliquots were taken to make individual treatment solutions. Vials were then brought up to final spray volume of 24 mL. The treatments were sprayed at a pressure of 276 kPa through a T-Jet 8002E (Spraying Systems Co., Wheaton, Ill.) flat fan nozzle onto the surface of the plants in a stationary belt sprayer system calibrated to deliver 280 L/Ha. Treatments were replicated three times.
The sprayed plants were placed in the greenhouse for observation; height and leaf stages were then recorded. Plants were maintained by watering as needed and in the same manner in which they were propagated with respect to nutrition, light, and day length. Visual evaluations were made 21 days after treatment (DAT). A numerical rating system was used to describe the visual response of each treatment on a scale of 0 to 100. Numerical ratings were expressed as the percent effect as compared to the control plants, calculated as the mean of the three replicates. Zero (0%) indicates no visual response, and 100% indicates plant death or a moribund state expected to rapidly end in death.
Colby's equation was used to calculate the expected additive herbicidal effect of the mixtures of mesotrione with diuron, alone and in combination with hexazinone. Colby's equation (S. R. Colby, “Calculating Synergistic and Antagonistic Responses of Herbicide Combinations,” Weeds, 15(1), pp 20-22 (1967)) calculates the expected additive effect of herbicidal mixtures, and for two active ingredients is of the form: […]

SMILES	Herbicidal Effect Observed (mesotrione 5 g a.i./ha alone (CALLISTO)) [%]	Herbicidal Effect Observed (mesotrione 10 g a.i./ha alone) [%]	Herbicidal Effect Observed (mesotrione 20 g a.i./ha alone) [%]	Herbicidal Effect Observed (mesotrione 30 g a.i./ha alone) [%]	Herbicidal Effect Observed (mesotrione 40 g a.i./ha alone) [%]	Herbicidal Effect Observed (mesotrione 60 g a.i./ha alone) [%]	Herbicidal Effect Observed (mesotrione 90 g a.i./ha alone) [%]	Herbicidal Effect Observed (diuron 1800, hexazinone 0, mesotrione 0 g a.i./ha (KARMEX), mean of 3 replicates) [%]
CS(=O)(=O)c1ccc(C(=O)C2C(=O)CCCC2=O)c([N+](=O)[O-])c1 [Mesotrione, 2-[4-(methylsulfonyl)-2-nitrobenzoyl]-1,3-cyclohexanedione]	3	17	33	50	53	73	88	
CN(C)C(=O)Nc1ccc(Cl)c(Cl)c1 [Diuron, N′-(3,4-dichlorophenyl)-N,N-dimethylurea]								20
